# In patent US20220105150A1, “AMPHIPATHIC ALPHA-HELICAL ANTIMICROBIAL PEPTIDES TREAT INFECTIONS BY GRAM-NEGATIVE PATHOGENS” (priority 2019, published 2022):
# Square brackets hold non-standard residues; d marks the D form. Peptide text beside a SMILES is read from it. Dab = NCC[C@H](N)C(=O)O
# Tested on: Acinetobacter baumannii strains resistant to Polymyxin B and Colistin
# Details: strains resistant to Polymyxin B and Colistin, 24 h
# Text: The coupling procedure used 5 equivalents of Fmoc-D-amino acid or Fmoc-L-amino acid and HCTU (O-(1H-6-chlorobenzotriazole-1-yl)-1,1,3,3-tetramethyluronium hexafluorophosphate) and 6-Cl-HOBt (1-hydroxy-6-chloro-benztriazole) at 4.5 equivalents in DMF (Fisher Scientific, Denver, Colo.) and N-diisopropylethylamine (DIPEA) 10 equivalents (Oakwood Products, Inc., Estill, S.C.) in N-methyl-2-pyrrolidinone (NMP) (Fisher Scientific, Denver, Colo.) with the first and second couplings at room temperature for 30 min each. The deprotection procedure (removal of Fmoc protecting group) was carried out by treatment of the resin with 0.1 M HOBt (1-hydroxybenzotriazole) in DMF with 20% piperidine for 30 min. […] The resin was removed by filtration and peptide was precipitated with ice-cooled ethyl ether on ice for 15 min. Ether was decanted, the peptide was washed twice with ether and redissolved in acetonitrile/water (1:1, with 0.2% TFA) and the solution lyophilized to obtain the crude peptide. • Analytical and Preparative Purification by Reversed-Phase Chromatography: Analytical RP-HPLC: Column, Luna C18 (2), 250×4.6 mm I.D., 5 μm particle size, 100 Å pore size from Phenomenex (Torrance, Calif.). Run conditions: linear AB gradient (1% acetonitrile/min, starting from 2% acetonitrile) at a flow-rate of 1 ml/min, where eluent A is 0.2% aq. TFA and eluent B is 0.18% TFA in acetonitrile; temperature, 30° C. Preparative RP-HPLC: Peptides were dissolved in 0.2% aq. TFA containing 2% acetonitrile to a final concentration of 10 mg/ml. Following filtration through a 0.45 μm Millipore filter and subsequently through a 0.22 μm filter, the peptide solutions were loaded onto the column via multiple 20-ml injections into a 20-ml injection loop at a flow-rate of 10 ml/min. Column, Luna C18 (2), 250×30 mm I.D., 5 um particle size, 100 Å pore size from Phenomenex. Run conditions: 2% acetonitrile/min gradient up to an acetonitrile concentration 10% below that required to elute the peptide during analytical RP-HPLC, then shallow gradient elution (0.05% or 0.1% acetonitrile/min depending on the complexity of impurities near the product of interest on the analytical run of the crude peptide) at a flow-rate of 10 ml/min (same eluents as shown above for analytical RP-HPLC); at room temperature. • Temperature Profiling of Peptides on Reversed-phase HPLC to Measure Dimerization and Oligomerization: Purified peptides were analyzed on an Agilent 1200 series liquid chromatograph for temperature profiling using a Zorbax 300 SB-C8 column (150 mm×2.1 mm I.D.; 5 μm particle size, 300 Å pore size) from Agilent Technologies. […] Temperature profiling was carried out on peptide mixtures run at each temperature in 2° C. increments from 5° C. to 41° C. and 10° C. increments from 5° C. to 75° C. Twenty minutes was allowed between runs for temperature equilibration. • Characterization of Helical Structure: The mean residue molar ellipticities of peptides were determined by circular dichroism (CD) spectroscopy, using a Jasco J-815 spectropolarimeter (Jasco Inc. Easton, Md., USA) at 5° C. under KP buffer (50 mM NaH2PO4/Na2HPO4/100 mM KCl, pH 7.0) as well as in the presence of an α-helix inducing solvent, 2,2,2-trifluoroethanol, TFE, (50 mM NaH2PO4/Na2HPO4/100 mM KCl, pH 7.0 buffer/50% TFE). A 10-fold dilution of an approximately 500 μM stock solution of the peptide analogs was loaded into a 0.1 cm quartz cell and its ellipticity scanned from 195 to 250 nm.
smiles,measurement,value
"CC(=O)N[C@H](CCCCN)C(=O)N[C@H](CC(C)C)C(=O)N[C@H](CCCN)C(=O)N[C@H](CO)C(=O)N[C@H](CC(C)C)C(=O)N[C@H](CC(C)C)C(=O)N[C@H](CCCN)C(=O)N[C@@H](C(=O)N[C@H](CC(C)C)C(=O)N[C@H](CO)C(=O)N[C@H](CCCN)C(=O)N[C@H](C)C(=O)N[C@H](CCCCN)C(=O)N[C@H](C)C(=O)N[C@H](C)C(=O)N[C@H](CCCCN)C(=O)N[C@H](CC(C)C)C(=O)N[C@H](CCCN)C(=O)N[C@@H](C(=O)N[C@H](CC(C)C)C(=O)N[C@H](CC(C)C)C(=O)N[C@H](CCCN)C(=O)N[C@H](C)C(=O)N[C@H](CC(C)C)C(=O)N[C@H](CO)C(=O)N[C@H](CCCN)C(N)=O)[C@H](C)O)[C@H](C)O [D85(Lys^1-6Orn-1), Ac-KL(Orn)SLL(Orn)TLS(Orn)AKAAKL(Orn)TLL(Orn)ALS(Orn)-amide]",MIC MB9941,0.7 µM
same,MIC MB9949,0.7 µM
same,MIC MB9951,0.7 µM
same,MIC MB9952,0.4 µM
same,MIC MB9953,0.4 µM
same,MIC MB9955,0.4 µM
same,MIC MB9963,0.4 µM
"CC(=O)N[C@H](CCCCN)C(=O)N[C@H](CC(C)C)C(=O)N[C@H](CCCNC(=N)N)C(=O)N[C@H](CO)C(=O)N[C@H](CC(C)C)C(=O)N[C@H](CC(C)C)C(=O)N[C@H](CCCNC(=N)N)C(=O)N[C@@H](C(=O)N[C@H](CC(C)C)C(=O)N[C@H](CO)C(=O)N[C@H](CCCNC(=N)N)C(=O)N[C@H](C)C(=O)N[C@H](CCCCN)C(=O)N[C@H](C)C(=O)N[C@H](C)C(=O)N[C@H](CCCCN)C(=O)N[C@H](CC(C)C)C(=O)N[C@H](CCCNC(=N)N)C(=O)N[C@@H](C(=O)N[C@H](CC(C)C)C(=O)N[C@H](CC(C)C)C(=O)N[C@H](CCCNC(=N)N)C(=O)N[C@H](C)C(=O)N[C@H](CC(C)C)C(=O)N[C@H](CO)C(=O)N[C@H](CCCNC(=N)N)C(N)=O)[C@H](C)O)[C@H](C)O [D87(Lys^1-6Arg-1), Ac-KL(Arg)SLL(Arg)TLS(Arg)AKAAKL(Arg)TLL(Arg)ALS(Arg)-amide]",MIC MB9941,1.3 µM
same,MIC MB9949,1.3 µM
same,MIC MB9951,0.7 µM
same,MIC MB9952,0.7 µM
same,MIC MB9953,0.7 µM
same,MIC MB9955,0.7 µM
same,MIC MB9963,0.7 µM
"CC(=O)N[C@H](CCCCN)C(=O)N[C@H](CC(C)C)C(=O)N[C@H](CCCCN)C(=O)N[C@H](CO)C(=O)N[C@H](CC(C)C)C(=O)N[C@H](CC(C)C)C(=O)N[C@H](CCCCN)C(=O)N[C@@H](C(=O)N[C@H](CC(C)C)C(=O)N[C@H](CO)C(=O)N[C@H](C)C(=O)N[C@H](C)C(=O)N[C@H](CCCCN)C(=O)N[C@H](CCCCN)C(=O)N[C@H](CCCCN)C(=O)N[C@H](CCCCN)C(=O)N[C@H](CC(C)C)C(=O)N[C@H](C)C(=O)N[C@@H](C(=O)N[C@H](CC(C)C)C(=O)N[C@H](CC(C)C)C(=O)N[C@H](CCCCN)C(=O)N[C@H](C)C(=O)N[C@H](CC(C)C)C(=O)N[C@H](CO)C(=O)N[C@H](CCCCN)C(N)=O)[C@H](C)O)[C@H](C)O [D88(Lys^1-6 Lys-2), Ac-KL(Lys)SLL(Lys)TLSAAK(Lys)(Lys)KLATLL(Lys)ALS(Lys)-amide] (Ac-[dK][dL][dK][dS][dL][dL][dK][dT][dL][dS][dA][dA][dK][dK][dK][dK][dL][dA][dT][dL][dL][dK][dA][dL][dS][dK]-NH2)",MIC MB9941,0.7 µM
same,MIC MB9949,0.7 µM
same,MIC MB9951,0.3 µM
same,MIC MB9952,0.3 µM
same,MIC MB9953,0.3 µM
same,MIC MB9955,0.3 µM
same,MIC MB9963,0.4 µM
"CC(=O)N[C@H](CCCCN)C(=O)N[C@H](CC(C)C)C(=O)N[C@@H](CCN)C(=O)N[C@H](CO)C(=O)N[C@H](CC(C)C)C(=O)N[C@H](CC(C)C)C(=O)N[C@@H](CCN)C(=O)N[C@@H](C(=O)N[C@H](CC(C)C)C(=O)N[C@H](CO)C(=O)N[C@H](C)C(=O)N[C@H](C)C(=O)N[C@H](CCCCN)C(=O)N[C@@H](CCN)C(=O)N[C@@H](CCN)C(=O)N[C@H](CCCCN)C(=O)N[C@H](CC(C)C)C(=O)N[C@H](C)C(=O)N[C@@H](C(=O)N[C@H](CC(C)C)C(=O)N[C@H](CC(C)C)C(=O)N[C@@H](CCN)C(=O)N[C@H](C)C(=O)N[C@H](CC(C)C)C(=O)N[C@H](CO)C(=O)N[C@@H](CCN)C(N)=O)[C@H](C)O)[C@H](C)O [D89(Lys^1-6 Dab-2), Ac-KL(L-Dab)SLL(L-Dab)TLSAAK(L-Dab)(L-Dab)KLATLL(L-Dab)ALS(L-Dab)-amide] (Ac-[dK][dL][Dab][dS][dL][dL][Dab][dT][dL][dS][dA][dA][dK][Dab][Dab][dK][dL][dA][dT][dL][dL][Dab][dA][dL][dS][Dab]-NH2)",MIC MB9941,0.7 µM
same,MIC MB9949,0.7 µM
same,MIC MB9951,0.7 µM
same,MIC MB9952,0.7 µM
same,MIC MB9953,0.7 µM
same,MIC MB9955,0.7 µM
same,MIC MB9963,0.7 µM
"CC(=O)N[C@H](CCCCN)C(=O)N[C@H](CC(C)C)C(=O)N[C@H](CCCCN)C(=O)N[C@H](CO)C(=O)N[C@H](CC(C)C)C(=O)N[C@H](CC(C)C)C(=O)N[C@H](CCCCN)C(=O)N[C@@H](C(=O)N[C@H](CC(C)C)C(=O)N[C@H](CO)C(=O)N[C@H](C)C(=O)N[C@H](C)C(=O)N[C@H](CCCCN)C(=O)N[C@H](CCCCN)C(=O)N[C@H](CCCCN)C(=O)N[C@H](CCCCN)C(=O)N[C@H](CC(C)C)C(=O)N[C@H](C)C(=O)N[C@@H](C(=O)N[C@H](CC(C)C)C(=O)N[C@H](CC(C)C)C(=O)N[C@H](CCCCN)C(=O)N[C@H](C)C(=O)N[C@H](CC(C)C)C(=O)N[C@H](CO)C(=O)N[C@H](CO)C(N)=O)[C@H](C)O)[C@H](C)O [D103(Lys^1Ser^26-5 Lys-2), Ac-KL(Lys)SLL(Lys)TLSAAK(Lys)(Lys)KLATLL(Lys)ALS(Ser)-amide] (Ac-[dK][dL][dK][dS][dL][dL][dK][dT][dL][dS][dA][dA][dK][dK][dK][dK][dL][dA][dT][dL][dL][dK][dA][dL][dS][dS]-NH2)",MIC MB9941,0.7 µM
same,MIC MB9949,0.7 µM
same,MIC MB9951,0.7 µM
same,MIC MB9952,0.7 µM
same,MIC MB9953,0.7 µM
same,MIC MB9955,0.7 µM
same,MIC MB9963,0.7 µM
"CC(=O)N[C@H](CCCCN)C(=O)N[C@H](CC(C)C)C(=O)N[C@@H](CCN)C(=O)N[C@H](CO)C(=O)N[C@H](CC(C)C)C(=O)N[C@H](CC(C)C)C(=O)N[C@@H](CCN)C(=O)N[C@@H](C(=O)N[C@H](CC(C)C)C(=O)N[C@H](CO)C(=O)N[C@H](C)C(=O)N[C@H](C)C(=O)N[C@H](CCCCN)C(=O)N[C@@H](CCN)C(=O)N[C@@H](CCN)C(=O)N[C@H](CCCCN)C(=O)N[C@H](CC(C)C)C(=O)N[C@H](C)C(=O)N[C@@H](C(=O)N[C@H](CC(C)C)C(=O)N[C@H](CC(C)C)C(=O)N[C@@H](CCN)C(=O)N[C@H](C)C(=O)N[C@H](CC(C)C)C(=O)N[C@H](CO)C(=O)N[C@H](CO)C(N)=O)[C@H](C)O)[C@H](C)O [D104(Lys^1Ser^26-5 Dab-2), Ac-KL(L-Dab)SLL(L-Dab)TLSAAK(L-Dab)(L-Dab)KLATLL(L-Dab)ALS(Ser)-amide] (Ac-[dK][dL][Dab][dS][dL][dL][Dab][dT][dL][dS][dA][dA][dK][Dab][Dab][dK][dL][dA][dT][dL][dL][Dab][dA][dL][dS][dS]-NH2)",MIC MB9941,0.7 µM
same,MIC MB9949,0.7 µM
same,MIC MB9951,0.7 µM
same,MIC MB9952,0.7 µM
same,MIC MB9953,1.5 µM
same,MIC MB9955,0.7 µM
same,MIC MB9963,0.7 µM
